Experimental data taken from patent US6638970B2, “Substituted alkylene diamine compounds” (CV Therapeutics, Inc., priority 2000, dated 2003).

Legend:
[1] = system: mitochondrial fatty acid oxidation using palmitoyl carnitine as substrate; assay: Palmitoyl carnitine oxidation in isolated rat heart mitochondria; type: biochemical; details: 15 min at 30° C.
Method: (§1) Rat heart mitochodria were isolated by the method of Nedergard and Cannon (Methods in Enzymol. 55, 3, 1979).
(§2) Palmitoyl Carnitine Oxidation—The Palmitoyl carnitine oxidation was carried out in a total volume of 100 microliters containing the following agents: 110 mM KCl, 33 mM Tris buffer at pH 8, 2 mM KPi, 2 mM MgCl2, 0.1 mM EDTA, 0.1 mg/ml of defatted BSA, 0.5 mM malic acid, 3 mM ADP, 52 micrograms of mitochondrial protein, and 43 microM 1-C14 palmitoyl carnitine (Sp. Activity 60 mCi/mmole; 20 microCi/ml, using 5 microliters per assay). The compounds of this invention were added in a DMSO solution at the following concentrations: 100 microM, 30 microM, and 3 microM. In each assay, a DMSO control was used. After 15 min at 30° C., the enzymatic reaction was centrifuged (20,000 g for 1 min), and 70 microliters of the supernatant was added to an activated reverse phase silicic acid column (approximately 0.5 ml of silicic acid). The column was eluted with 2 ml of water, and 0.5 ml of the eluent was used for scintillation counting to determine the amount of C^14 trapped as C^14 bicarbonate ion. The data are presented as % activity of control.

[2] = Metabolic stability in human liver S-9 fractions; type: in vitro ADME; details: for Liver S-9 stability factor: % parent remaining after 30 min in human liver S-9 divided by average % of ranolazine remaining (57%)
Method: Metabolic Stability: As a measure of metabolic stability the compounds of this invention were incubated with human liver S-9 microsomal fractions. After, 30 minutes at 37 C, the amount of parent drug remaining was determined using LC-mass spec. The response factors for each compound was determined by establishing a standard curve and using an internal standard during the analysis of the samples. An average of five experiments for percentage of ranolazine remaining at the 30 minute time point is 57%. The compounds of this invention were assayed as described in the protocol below and the percentage of parent remaining was divided by the average % of ranolazine remaining (57%) affording a metabolic stability factor. A compound with a stability number greater than 1.2 has a better stability than ranolazine in the liver S-9 assay. A compound with a stability number between 1.2 and 0.8 has an equivalent stability in the liver S-9 assay.
The purpose of this experiment is to compare the percentages remaining for compounds of this invention with the percentage remaining for ranolazine after 30 minutes of incubation with human liver S9 fractions.
The following reagents were used; Potassium phosphate, 0.5M […]. (incubation buffer), kept at room temperature; 0.05M MgCl2 kept at 4° C.; β-Nicotinamide adenine dinucleotide phosphate, tetrasodium salt, reduced form (NADPH), 0.02M solution in water (˜16.6 mg/mL) from Sigma Lot # 79H7044 prepared on day of use. 1 mM of ranolazine or Compounds 7, 9, and 10-13 in ACN further diluted to obtain 100 μM in 10% ACN; Human S9 stock: 20 mg/mL from Gentest Lot 3.
Incubation mixtures were prepared as follows:
Combine all components with incubation buffer and re-pipette 200 μL/tube+25 μL of the compound being tested along with 25 μL of S-9.
After 5 min of pre-incubation at 37° C., at 0 and 30 min after starting the reaction, a 50 μl aliquot of the incubation mixture was removed and added to 100 μL of 9:1 acetonitrile:methanol containing the internal standard.
The mixture was centrifuged and a 100 μL aliquot of the supernatant was diluted in 1 mL of solvent C (0.1% Formic Acid in water). Then samples were analyzed for change between the ratio of compound to internal standard at time zero and 30 minutes by LC/MS (injected 10 μL).
Samples were analyzed for the starting compounds and potential metabolite/s by LC/MS using an internal standard on a Micromass platform mass spec with a Keystone Inc. BDS ODS-C18 column with a flow rate of 0.25 ml/min.

[3] = system: mitochondrial fatty acid oxidation using palmitoyl CoA as substrate; assay: Palmitoyl CoA oxidation in isolated rat heart mitochondria; type: biochemical; details: 15 min at 30° C.
Method: as §1
as §2, with “Palmitoyl CoA oxidation—The” for “Palmitoyl Carnitine Oxidation—The”, “Palmitoyl CoA” for “Palmitoyl carnitine”, “EDTA, 14.7 microM” for “EDTA, 0.1 mg/ml of”, “acid, 13 mM carnitine, 1” for “acid, 3”, “and 16” for “and 43”, “palmitoyl CoA” for “palmitoyl carnitine”

Row | SMILES | Palmitoyl carnitine oxidation remaining, % activity of DMSO control ([1]; 100 μM compound) [%] | Liver S-9 stability factor [2] | Palmitoyl CoA oxidation activity, % of DMSO control ([3]; 100 μM compound) [%] | other results
1 | COc1ccccc1OCC(O)CN1CCN(CC(=O)Nc2c(C)cccc2C)CC1 (racemic) [Ranolazine, (±)-N-(2,6-dimethylphenyl)-4-[2-hydroxy-3-(2-methoxyphenoxy)-propyl]-1-piperazineacetamide, reference compound] | 63 | 1.0 | 75 | Palmitoyl carnitine oxidation remaining, % activity of DMSO control ([1]; 30 μM compound): 98%; percentage of parent drug remaining at the 30 minute time point ([2]; human liver S-9, 30 minutes at 37 C, 10 μM, average of five experiments): 57%; Palmitoyl CoA oxidation activity, % of DMSO control ([3]; 30 μM compound): 90%
2 | Cc1cccc(C)c1NC(=O)CN(C)CCN(C)CC(O)COc1ccc2c(c1)OCO2 (stereo not shown) [Compound 7, 2-({2-[(3-(2H-benzo[d]1,3-dioxolen-5-yloxy)-2-hydroxypropyl)methylamino]ethyl}methylamino)-N-(2,6-dimethylphenyl)acetamide] | – | 1.51 | – | –
3 | COc1ccccc1OCC(O)CN(C)CCN(C)CC(=O)Nc1c(C)cccc1C (stereo not shown) [Compound 9] | – | – | 8.83 | –
4 | Cc1cccc(C)c1NC(=O)CN(C)CCN(C)CC(O)COc1c(Cl)cccc1Cl (stereo not shown) [Compound 10] | – | – | 23 | –
5 | COc1ccccc1CC(O)CN(C)CCN(C)CC(=O)Nc1c(C)cccc1C (stereo not shown) [Compound 11] | – | – | 8 | –
6 | Cc1cccc(C)c1NC(=O)CN(C)CCN(C)CC(O)Cc1cccc2ccccc12 (stereo not shown) [Compound 12] | – | – | 26.5 | –
7 | CCN(CCN(CC)CC(O)COc1ccccc1OC)CC(=O)Nc1c(C)cccc1C (stereo not shown) [Compound 13] | – | – | 67.8 | –
8 | CCN(CCN(CC)CC(O)COc1c(Cl)cccc1Cl)CC(=O)Nc1c(C)cccc1C (stereo not shown) [Compound 14] | – | – | 97.1 | –
9 | CCN(CCN(CC)CC(O)c1ccccc1Cl)CC(=O)Nc1c(C)cccc1C (stereo not shown) [Compound 17] | – | 0.01 | 34.3 | –
10 | CCN(CCN(CC)CC(O)c1ccccc1F)CC(=O)Nc1c(C)cccc1C (stereo not shown) [Compound 18] | – | – | 54.8 | –
11 | CCN(CCN(CC)CC(O)Cc1ccc2c(c1)OCO2)CC(=O)Nc1c(C)cccc1C (stereo not shown) [Compound 19] | 97.1 | – | 26 | –
12 | Cc1cccc(C)c1NC(=O)CN(C)CCN(C)CC(O)Cc1ccc2c(c1)OCO2 (stereo not shown) [Compound 20] | 98.7 | 1.59 | – | –
13 | Cc1cccc(C)c1NC(=O)CN(C)CCCN(C)CC(O)Cc1ccccc1 (stereo not shown) [Compound 21] | 4.9 | 0.08 | – | –
14 | Cc1cccc(C)c1NC(=O)CN(C)CCCN(C)CC(O)Cc1ccc2c(c1)OCO2 (stereo not shown) [Compound 22] | 97 | 1.58 | 12.5 | –
